Source: patent US9803021B2 (The Regents of the University of California, priority 2012, dated 2017)
“Also recorded” adds a separate entry of the source.

Key:
[1] = tested on: MM1-144; assay: Apoptosis assay (Annexin V / PI flow cytometry); format: cell-based, human
Procedure: (§1) Cells were analyzed by flow cytometry using FlowJo software.
(§2) Cells were stained with Alexa Fluor 488-labeled Annexin V and propidium iodide (PI) using the Vybrant Apoptosis Kit #2 (Molecular Probes) as per manufacturer's instructions and analyzed by flow cytometry.

[2] = tested on: OCI-My5; assay: Apoptosis assay (Annexin V / PI flow cytometry); format: cell-based, human; conditions: 3 days; for induction of apoptosis, result in words: OCI-My5, 500 pM (also 1 nM)
Procedure: as §1, §2

[3] = tested on: NCI-H929; assay: Apoptosis assay (Annexin V / PI flow cytometry); format: cell-based, human
Procedure: as §1, §2

[4] = tested on: 8226/S; assay: Apoptosis assay (Annexin V / PI flow cytometry); format: cell-based, human
Procedure: as §1, §2

[5] = tested on: U266; assay: Apoptosis assay (Annexin V / PI flow cytometry); format: cell-based, human
Procedure: as §1, §2

[6] = tested on: ANBL-6; assay: Apoptosis assay (Annexin V / PI flow cytometry); format: cell-based, human
Procedure: as §1, §2

[7] = tested on: MM1-144; assay: MTS assay (cell viability / metabolic activity); format: cell-based, human; conditions: MM144 (MM1-144), 3 days
Procedure: (§3) Percent cell viability was determined using MTS solution (Promega, Madison, Wis.) by measuring absorbance at 490 nm using a Synergy HT Multi-Detection Microplate Reader (BioTek Instruments, Inc., Winooski, Vt.) with untreated cells being 100%. GraphPad Prism (GraphPad Software Inc., La Jolla, Calif.) was used to analyze data by non-linear regression with the log (inhibitor) vs. the response with a variable slope with the IC50 calculated. Data are expressed as a percentage of maximum metabolic activity. The experiments were performed in triplicate.
as §3, with “Metabolic activity” for “Percent cell viability”, “(Promega)” for “(Promega, Madison, Wis.)”, “Instruments Inc.)” for “Instruments, Inc., Winooski, Vt.)”, “Inc.)” for “Inc., La Jolla, Calif.)”, “versus” for “vs.”, “slope.” for “slope with the IC50 calculated.”

[8] = tested on: OCI-My5; assay: MTS assay (cell viability / metabolic activity); format: cell-based, human; conditions: OCI-My5, 3 days
Procedure: as §3
as §3, with “Metabolic activity” for “Percent cell viability”, “(Promega)” for “(Promega, Madison, Wis.)”, “Instruments Inc.)” for “Instruments, Inc., Winooski, Vt.)”, “Inc.)” for “Inc., La Jolla, Calif.)”, “versus” for “vs.”, “slope.” for “slope with the IC50 calculated.”

[9] = tested on: 8226/S; assay: MTS assay (cell viability / metabolic activity); format: cell-based, human; conditions: 8226/S (RPMI 8226), 3 days or 4 days
Procedure: as §3
as §3, with “Metabolic activity” for “Percent cell viability”, “(Promega)” for “(Promega, Madison, Wis.)”, “Instruments Inc.)” for “Instruments, Inc., Winooski, Vt.)”, “Inc.)” for “Inc., La Jolla, Calif.)”, “versus” for “vs.”, “slope.” for “slope with the IC50 calculated.”

[10] = tested on: U266; assay: MTS assay (cell viability / metabolic activity); format: cell-based, human; conditions: U266, 3 days
Procedure: as §3
as §3, with “Metabolic activity” for “Percent cell viability”, “(Promega)” for “(Promega, Madison, Wis.)”, “Instruments Inc.)” for “Instruments, Inc., Winooski, Vt.)”, “Inc.)” for “Inc., La Jolla, Calif.)”, “versus” for “vs.”, “slope.” for “slope with the IC50 calculated.”

[11] = tested on: ANBL-6; assay: MTS assay (cell viability / metabolic activity); format: cell-based, human; conditions: ANBL-6, 3 days or 7 days
Procedure: as §3
as §3, with “Metabolic activity” for “Percent cell viability”, “(Promega)” for “(Promega, Madison, Wis.)”, “Instruments Inc.)” for “Instruments, Inc., Winooski, Vt.)”, “Inc.)” for “Inc., La Jolla, Calif.)”, “versus” for “vs.”, “slope.” for “slope with the IC50 calculated.”

[12] = tested on: U266 tumors; assay: U266 xenograft model in NSG mice; conditions: U266 s.c.
Procedure: For U266 tumors, NOD scid IL-2 receptor gamma chain knock out (NSG) mice were injected subcutaneously with 1×10^7 U226 cells and treated on days 14, 16 and 18 with 100 μg of the indicated proteins. […] Survival was monitored as well as the size of the tumors.
For U266 tumors, experiments were carried out as described above except that NOD-scid IL2rγ^null (NSG) mice were used.

[13] = tested on: MM1-144; assay: Ki-67 stain (flow cytometry); format: cell-based, human; conditions: MM1-144, 500 pM, 3 days
Procedure: (§4) Senescence induced β-galactosidase (β-gal) activity was detected as described previously (Debacq-Chainiaux et al. (2009) Nat. Protoc., 4: 1798-1806) and in Supplemental methods. To detect Ki-67 protein, cells were stained and analyzed by flow cytometry as described in Supplemental methods.
(§5) After treatment, cells were fixed with methanol on ice and then incubated with anti-Ki-67 rabbit IgG (Abcam). Cells were then stained with anti-rabbit IgG-FITC (Sigma) and analyzed by flow cytometry.

[14] = tested on: NCI-H929; assay: Ki-67 stain (flow cytometry); format: cell-based, human; conditions: NCI-H929, 500 pM, 3 days
Procedure: as §4, §5

[15] = tested on: ppRb in MM1-144; assay: Western blot of ppRb; format: cell-based, human; conditions: MM1-144, 1 nM, 48 hours
Procedure: (§6) Cells were lysed using RIPA buffer (50 mM Tris HCl pH 8, 150 mM NaCl, 1% NP-40, 0.5% sodium deoxycholate, 0.1% SDS) containing a protease inhibitor cocktail (Roche Applied Science, Indianapolis, Ind.). The cytosolic fractions were reduced with β-mercaptoethanol and separated by SDS-PAGE. Following transfer to nitrocellulose membrane (Whatman, Piscataway, N.J.) and blocking, samples were incubated with the following primary rabbit antibodies: anti-IRF4 (Epitomics, Berlingham, Calif.), anti-glyceraldehyde-3-phosphate dehydrogenase (GAPDH; Sigma), anti-ppRb Ser807/811 (Santa Cruz Biotechnology, Santa Cruz, Calif.), anti-cyclin D (Millipore, Billerica, Mass.), or anti-β tubulin (Abcam, Cambridge, Mass.). Secondary anti-rabbit IgG-HRP (GE Healthcare, Billerica, Mass.) was used and the blots were developed using enhanced chemiluminescence (ECL; Thermo Scientific, Waltham, Mass.).
(§7) Cells were lysed using RIPA buffer (50 mM Tris-HCl pH 8, 150 mM NaCl, 1% NP-40, 0.5% sodium deoxycholate, 0.1% SDS) containing a protease inhibitor cocktail (Roche Applied Science). The cytosolic fractions were reduced with β-mercaptoethanol and separated by SDS PAGE. Following transfer to nitrocellulose membrane (Whatman) and blocking, samples were incubated with the following primary rabbit antibodies: anti-IRF-4 (Epitomics), anti-glyceraldehyde-3-phosphate dehydrogenase (GAPDH; Sigma), or anti-ppRb Ser807/811 (Santa Cruz Biotechnology). Secondary anti-rabbit IgG-HRP (GE Healthcare) was used and the blots were developed using enhanced chemiluminescence (ECL; Thermo Scientific). Films were imaged using a Multilmage™ Light Cabinet (Alpha Innotech Corp.) and analyzed using NIH Image J. Bands were normalized to a GAPDH loading control and expressed as percentage band intensity of untreated cells.

[16] = tested on: ppRb in OCI-My5; assay: Western blot of ppRb; format: cell-based, human; conditions: OCI-My5, 1 nM, 48 hours
Procedure: as §6, §7

[17] = tested on: ppRb in NCI-H929; assay: Western blot of ppRb; format: cell-based, human; conditions: NCI-H929, 1 nM, 48 hours
Procedure: as §6, §7

[18] = tested on: OCI-My 5 cells; assay: Cell proliferation assay (3[H]-thymidine incorporation); format: cell-based, human; conditions: OCI-My 5, 0.3 pM-25 nM, 3 days
Procedure: The proliferative status of the cells was determined by measuring ^3[H]-thymidine incorporation.

anti-CD138-IFNα: Fusion protein: murine B-B4 anti-CD138 variable regions, human IgG1κ constant regions, human IFNα2 fused to the antibody C-terminus via SGGGGS linker
induction of apoptosis at low concentration, result in words ([1]; MM1-144, 1 pM, 3 days): did not cause apoptosis | Mode of Action of anti-CD138-IFNα fusion ([1]; MM144): Apoptosis | induction of apoptosis, result in words ([1]; MM144 (MM1-144), 500 pM, 3 days): caused apoptosis | induction of apoptosis at low concentration, result in words ([2]; OCI-My5, 5 pM): able to induce apoptosis | induction of apoptosis, result in words [2]: did not induce apoptosis; also recorded: did not cause apoptosis or blocks to cell cycle progression | induction of apoptosis, result in words ([2]; listed as anti-CD138-IFNα2): caused apoptosis | Mode of Action of anti-CD138-IFNα fusion ([3]; H929): Apoptosis | induction of apoptosis, result in words ([3]; H929 (NCI-H929), 500 pM, 3 days, listed as anti-CD138-IFNα2): caused apoptosis | induction of apoptosis at low concentration, result in words ([3]; NCI-H929, 1 pM, 3 days): did not cause apoptosis | Mode of Action of anti-CD138-IFNα fusion [4]: Apoptosis | Mode of Action of anti-CD138-IFNα fusion ([5]; U266): Apoptosis | induction of apoptosis at low concentration, result in words ([5]; U266, 1 pM, 3 days): able to induce apoptosis | induction of apoptosis, result in words ([5]; U266, 500 pM, 3 days, listed as anti-CD138-IFNα2): caused apoptosis | Mode of Action of anti-CD138-IFNα fusion ([6]; ANBL-6): Apoptosis | induction of apoptosis at low concentration, result in words ([6]; ANBL-6, 1 pM, 3 days): did not cause apoptosis | induction of apoptosis, result in words ([6]; ANBL-6, 500 pM, 3 days, listed as anti-CD138-IFNα2): caused apoptosis | cell viability / growth inhibition (MTS assay), result in words [7]: more effective than untargeted anti-CD20-IFNα; also recorded: more effective at decreasing cell viability than IFNα alone | cell viability / growth inhibition (MTS assay), result in words ([7]; listed as Anti-CD138-IFNα2): more effective than recombinant IFNα2 | cell viability / growth inhibition (MTS assay), result in words [8]: more effective than untargeted anti-CD20-IFNα; also recorded: more effective at decreasing cell viability than IFNα alone | cell viability / growth inhibition (MTS assay), result in words ([8]; listed as Anti-CD138-IFNα2): more effective than recombinant IFNα2 | cell viability / growth inhibition (MTS assay), result in words [9]: intermediate effect; also recorded: more effective at decreasing cell viability than IFNα alone | cell viability / growth inhibition (MTS assay), result in words ([9]; listed as Anti-CD138-IFNα2): some effect was observed only at high concentrations | cell viability / growth inhibition (MTS assay), result in words [10]: more effective than untargeted anti-CD20-IFNα; also recorded: more effective at decreasing cell viability than IFNα alone | cell viability / growth inhibition (MTS assay), result in words [11]: more effective than untargeted anti-CD20-IFNα; also recorded: more effective at decreasing cell viability than IFNα alone | cell viability / growth inhibition (MTS assay), result in words ([11]; listed as Anti-CD138-IFNα): more effective than anti-CD138-mutIFNα | cell viability / growth inhibition (MTS assay), result in words ([11]; listed as Anti-CD138-IFNα2): more effective than recombinant IFNα2 | survival / protection against tumor growth, result in words ([12]; 100 μg on days 14, 16, 18): much more effective than untargeted anti-DNS-IFNα | survival / protection against tumor growth, result in words ([12]; 100 μg on days 14, 16, 18, listed as anti-CD138-IFNα2): highest levels of protection | Ki-67 negative (non-dividing) cells, result in words [13]: more Ki-6T cells as compared to untreated control | Ki-67 negative (non-dividing) cells, result in words [14]: more Ki-6T cells as compared to untreated control | ppRb levels (Western blot) [15]: decreased | ppRb levels (Western blot) [16]: decreased | ppRb levels (Western blot) [17]: decreased | proliferation (3[H]-thymidine incorporation), result in words [18]: greater effect than IFNα alone
